# In patent publication US20050119344A1, “Medium for radical treatment of tumors, inflammatory processes, fungal infections and other affections of the tissues, diagnostic and prophylactic and method of its implementation” (priority 2001, published 2005):
# Key:
# [1] = system: malign formation in the milk gland
# Source text: (§1) The treatment is provided by rub in the medium with a tampon impregnated with it, directly in the tumor (by the skin ones), or in the accessible surface of the healthy tissue situated near by it. The rub in takes place repeatedly, with waiting for the absorption of the solution, until the tumor is saturated with formic acid in such a degree, that the blood in its blood-vessels coagulates and so that the tumor will be necrotized. […] By the benign tumor the treatment shall include mechanical irritation of its tissue too, with the purpose to stimulate the blood-circulation in it, by which the blood-vessels will be filled out and their surface will be enlarged on the account of the thickness of their walls. Such a treatment can be utilized, if necessary, by the malignant tumors too.
# In the concrete case the treatment is applied on the spouse and respectively parent of the inventors. The women is […], with two side fibrose mastopatia. On 19 Nov. 2001 by an echographic examination has been discovered malign formation in the left breast, sector 12h, with the above mentioned dimensions and deepness, (FIG. 1 and FIG. 2). The diagnosis was confirmed through punctual biopsy. The treatment by the above-mentioned method began on 23 Nov. 2001 in the evening. […] The procedures continued three times daily in the following days.
# benign human skin tumors = details: through rub in
# Source text: as §1
# [2] = system: pathologically altered tissue; details: very weak solutions, in the range of 10%
# Source text: By broader studies can be composed a table for the painfulness of the reaction by the different groups of tumors and other types of tissue alteration, depending on the solution concentration, the time of influence, for example by rub in and the deepness of the alteration.
# The method has been applied for diagnostic of breast cancer.
# [3] = system: inflammatory processes, mushroom formations, and other pathological alterations of the tissues
smiles,measurement,setting,value
"O=CO [formic acid, formic (methane) acid (HCOOH)]",state of the tumor tissue,"[1]; concluded from echography, biopsy and lack of pain by rub in",necrotized
same,echographic size of the flack,[1]; echography 11 Dec. 2001 (FIG. 5),the flack is diminished
same,outcome of treatment of malign formation in the milk gland,"[1]; only through rub in, formation 5.7 to 7.4 mm, about 8 mm deep",successfully implemented
same,"second punction biopsy, cancer cells","[1]; person, rub in three times daily from 23 Nov. 2001, biopsy 01 Dec. 2001",have not been observed cancer cells
same,elimination of benign human skin tumors,benign human skin tumors,repeatedly implemented for the elimination
same,reaction when hitting places with pathologically altered tissue,[2],give pain reaction
same,"action in inflammatory processes, mushroom formations and other tissue alterations","[3]; rub in, pulverizing, inhalations or other supply",acts very effectively and rapidly
same,outcome in tooth grenolom,[3]; three cases,the extraction of the teeth was prevented
